According to US10058559B2, “Treatment or prevention of an intestinal disease or disorder” (The United States of America, as represented by the …, priority 2014, dated 2018):
Where two headings read alike, the source gives them in different places.

Assays:
DSS-colitis = assay: DSS (dextran-sulfate)-colitis in mice; assay type: in vivo
From the text: In initial studies to evaluate global LRRK2 function in bowel inflammation, LRRK2-Tg mice (as well as LRRK2 KO mice) were subjected to DSS (dextran-sulfate)-colitis. […] In contrast, DSS-colitis in LRRK2 KO mice was slightly less severe than in control mice (FIG. 2a and FIG. 2b). This latter result differs from that reported by Liu et al. who found increased severity of DSS colitis in LRRK2 KO mice. This discrepancy is likely due to differences in the control mice used in the two studies: the experiments described herein used control mice that had been back-crossed for 9 generations, were housed in the same facility and exposed to the same microbiota. These studies of DSS-colitis thus indicate that increased expression of LRRK2 leads to an increased inflammatory response in experimental colitis.

[1] = tested on: human BMDC derived from Crohn's disease peripheral blood; assay: ZymD-induced TNF-alpha production in human BMDC derived from Crohn's disease peripheral blood; assay type: cell-based; conditions: human cells
BMDC from LRRK2 Tg mice [2] = assay: ZymD-induced cytokine production in BMDC from LRRK2 Tg mice; assay type: cell-based; conditions: for ZymD-induced cytokine production: FIG. 5a and 5b
From the text: Since several of the candidate susceptibility genes in IBD (e.g., NOD2 and […]) are likely to be causing disease via an abnormal innate immune response, it was reasoned that increased LRRK2 expression was leading to an enhanced inflammatory response initiated by a Pathogen Associated Molecular Patterns (PAMPs) in the gastrointestinal environment.
Furthermore, in rat microglia, LRRK2 inhibitors block TLR4-induced TNF-a and iNOS production. Based on these findings, whether LRRK2 inhibition can serve as a therapeutic target in IBD was investigated. First, ZymD-induced cytokine production in BMDC from LRRK2 Tg mice in the presence or absence of two LRRK2 inhibitors, LRRK2-IN-1 and CZC54252.

BMDC from LRRK2 Tg mice [3] = assay: autophagy (Western blotting, LC3 puncta) in M. leprae- and ZymD-stimulated BMDC from LRRK2 Tg mice; assay type: cell-based
LRRK2 kinase = LRRK2 kinase (Homo sapiens, UniProt Q5S007); conditions: previously reported; cited from earlier work
Sequence of LRRK2 kinase (Q5S007 whole entry, species assumed): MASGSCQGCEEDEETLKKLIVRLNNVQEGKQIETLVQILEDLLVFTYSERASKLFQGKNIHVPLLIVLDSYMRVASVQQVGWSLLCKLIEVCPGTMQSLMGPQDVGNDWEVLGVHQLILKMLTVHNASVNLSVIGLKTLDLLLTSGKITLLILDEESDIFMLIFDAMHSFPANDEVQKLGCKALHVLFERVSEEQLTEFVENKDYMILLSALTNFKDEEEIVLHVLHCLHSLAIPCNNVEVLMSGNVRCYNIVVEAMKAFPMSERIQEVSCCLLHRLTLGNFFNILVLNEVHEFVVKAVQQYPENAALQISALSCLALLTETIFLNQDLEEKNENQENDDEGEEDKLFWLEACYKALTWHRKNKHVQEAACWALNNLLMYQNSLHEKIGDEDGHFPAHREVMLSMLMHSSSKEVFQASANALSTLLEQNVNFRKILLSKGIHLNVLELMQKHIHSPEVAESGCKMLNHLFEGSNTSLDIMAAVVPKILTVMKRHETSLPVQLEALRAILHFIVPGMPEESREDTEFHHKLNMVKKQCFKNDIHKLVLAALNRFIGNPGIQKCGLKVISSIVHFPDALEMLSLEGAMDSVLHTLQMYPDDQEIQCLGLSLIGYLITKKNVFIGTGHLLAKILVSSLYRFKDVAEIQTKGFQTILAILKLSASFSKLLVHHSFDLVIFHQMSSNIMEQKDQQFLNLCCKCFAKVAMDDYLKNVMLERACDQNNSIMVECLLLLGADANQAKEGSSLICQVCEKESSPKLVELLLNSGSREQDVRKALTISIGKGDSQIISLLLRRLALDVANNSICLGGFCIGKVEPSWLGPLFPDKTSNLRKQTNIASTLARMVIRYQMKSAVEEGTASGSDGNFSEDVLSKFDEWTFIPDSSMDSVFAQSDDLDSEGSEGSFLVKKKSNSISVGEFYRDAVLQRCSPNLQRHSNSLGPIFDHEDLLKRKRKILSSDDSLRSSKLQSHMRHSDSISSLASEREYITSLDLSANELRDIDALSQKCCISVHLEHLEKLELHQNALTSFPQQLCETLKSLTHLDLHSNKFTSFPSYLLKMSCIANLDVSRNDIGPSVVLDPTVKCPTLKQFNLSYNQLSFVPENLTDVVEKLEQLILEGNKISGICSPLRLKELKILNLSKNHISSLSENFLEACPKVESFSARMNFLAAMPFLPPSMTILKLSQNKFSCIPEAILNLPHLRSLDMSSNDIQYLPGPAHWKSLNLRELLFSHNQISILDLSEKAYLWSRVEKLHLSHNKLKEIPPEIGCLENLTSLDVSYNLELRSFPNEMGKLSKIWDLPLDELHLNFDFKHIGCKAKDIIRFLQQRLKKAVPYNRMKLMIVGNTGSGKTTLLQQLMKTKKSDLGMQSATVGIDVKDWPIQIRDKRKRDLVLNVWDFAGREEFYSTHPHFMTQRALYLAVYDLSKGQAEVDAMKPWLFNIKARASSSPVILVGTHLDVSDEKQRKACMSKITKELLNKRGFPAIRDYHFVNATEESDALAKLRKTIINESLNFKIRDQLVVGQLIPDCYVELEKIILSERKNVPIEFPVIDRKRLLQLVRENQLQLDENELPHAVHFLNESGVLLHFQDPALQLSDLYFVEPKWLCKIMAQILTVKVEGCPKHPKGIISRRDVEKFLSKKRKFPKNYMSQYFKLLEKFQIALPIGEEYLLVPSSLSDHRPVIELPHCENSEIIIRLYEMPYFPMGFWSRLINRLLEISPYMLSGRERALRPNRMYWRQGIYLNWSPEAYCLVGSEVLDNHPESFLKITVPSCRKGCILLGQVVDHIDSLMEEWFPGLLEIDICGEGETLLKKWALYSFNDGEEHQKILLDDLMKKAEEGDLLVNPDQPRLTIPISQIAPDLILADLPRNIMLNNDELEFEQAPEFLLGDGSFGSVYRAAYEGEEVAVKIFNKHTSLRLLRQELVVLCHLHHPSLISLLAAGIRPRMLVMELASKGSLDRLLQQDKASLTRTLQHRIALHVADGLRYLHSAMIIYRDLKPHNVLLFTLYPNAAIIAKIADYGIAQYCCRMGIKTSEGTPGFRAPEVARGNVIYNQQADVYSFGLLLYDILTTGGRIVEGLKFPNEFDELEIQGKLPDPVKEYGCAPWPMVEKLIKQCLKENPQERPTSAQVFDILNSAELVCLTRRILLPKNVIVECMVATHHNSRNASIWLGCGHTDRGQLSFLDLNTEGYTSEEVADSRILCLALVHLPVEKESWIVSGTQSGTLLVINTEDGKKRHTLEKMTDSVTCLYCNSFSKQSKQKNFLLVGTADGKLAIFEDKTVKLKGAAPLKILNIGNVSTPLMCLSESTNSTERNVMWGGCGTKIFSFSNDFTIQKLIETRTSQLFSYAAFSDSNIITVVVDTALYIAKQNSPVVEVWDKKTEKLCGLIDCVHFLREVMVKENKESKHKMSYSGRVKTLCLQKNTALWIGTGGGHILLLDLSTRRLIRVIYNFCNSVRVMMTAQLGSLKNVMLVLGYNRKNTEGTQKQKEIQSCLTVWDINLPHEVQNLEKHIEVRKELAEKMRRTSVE

[4] = in vivo; cited from earlier work
[5] = tested on: LRRK2 Ser910 and Ser935 phosphorylation; conditions: in vitro; cited from earlier work
[6] = tested on: LRRK2 Ser910 and Ser935 phosphorylation; conditions: in peripheral tissues in vivo; cited from earlier work
[7] = tested on: panel of 460 other kinases; conditions: cited from earlier work
187 kinases = conditions: cited from earlier work
[8] = cited from earlier work
LRRK2 phosphorylation = conditions: mice, 30 mg/kg to 50 mg/kg i.p., in vivo; cited from earlier work
[9] = tested on: panel of 136 other kinases; conditions: cited from earlier work
[10] = ZymD-induced, BMDC from LRRK2 Tg mice

COc1cc(C(=O)N2CCC(N3CCN(C)CC3)CC2)ccc1Nc1ncc2c(n1)N(C)c1ccccc1C(=O)N2C [LRRK2-IN-1, 5,11-Dihydro-2-[[2-methoxy-4-[[4-(4-methyl-1-piperazinyl)-1-piperidinyl]carbonyl]phenyl]amino]-5,11-dimethyl-6H-pyrimido[4,5-b][1,4]benzodiazepin-6-one]
DSS-colitis severity (DSS-colitis; LRRK2-Tg mice): amelioration | DSS-colitis severity (DSS-colitis; wild-type mice (so in the source)): ameliorate | concentration required to suppress cytokine production [1]: 5 µM | ZymD-induced cytokine production (BMDC from LRRK2 Tg mice [2]; BMDC from LRRK2 Tg mice): greatly reduced | inhibition of TNF-alpha, dose dependence (BMDC from LRRK2 Tg mice [2]; [10]): dose dependent | production of pro-inflammatory cytokine mRNAs (TNF-alpha, TL1A, IL-23p19, IL-6 and IL-1beta mRNAs) (BMDC from LRRK2 Tg mice [2]; [10]): suppressed | autophagy (Western blotting and quantitation of LC3 puncta) (BMDC from LRRK2 Tg mice [3]): reversed inhibition of autophagy

O=C1Nc2ccc(I)cc2/C1=C/c1cc(Br)c(O)c(Br)c1 [GW5074]
inhibitory activities of LRRK2 kinase (LRRK2 kinase): inhibitory activities

COc1cc(N2CCC(N3CCN(C)CC3)CC2)ccc1Nc1ncc(Cl)c(Nc2ccccc2S(=O)(=O)C(C)C)n1 [TAE684]
inhibitory activities of LRRK2 kinase (LRRK2 kinase): inhibitory activities

O=S(=O)(NCCNC/C=C/c1ccc(Br)cc1)c1cccc2cnccc12 [H-89]
inhibitory activities of LRRK2 kinase (LRRK2 kinase): inhibitory activities

O=C1Nc2ccccc2/C1=C1/Nc2ccccc2/C1=N\O [Indirubin-3-monoxime]
inhibitory activities of LRRK2 kinase (LRRK2 kinase): inhibitory activities

O=C(Nc1cccnc1)c1cc(-c2ccnc(F)c2)ccc1OCc1ccccc1 [GSK2578215A, 5-(2-Fluoro-4-pyridinyl)-2-(phenylmethoxy)-N-3-pyridinylbenzamide]
brain penetration [4]: brain penetrant | Ser910 and Ser935 phosphorylation [5]: blocks | Ser910 and Ser935 phosphorylation [6]: blocks | selectivity for LRRK2 against a panel of 460 other kinases [7]: displays selectivity for LRRK2

N-[-[[5-Chloro-2-[[2-methoxy-4-(4-morpholinyl)phenyl]amino]-4-pyrimidinyl]amino]phenyl]methanesulfonamide hydrochloride [CZC54252]
inhibition of TNF-alpha, dose dependence (BMDC from LRRK2 Tg mice [2]): dose dependent | ZymD-induced cytokine production (BMDC from LRRK2 Tg mice [2]; BMDC from LRRK2 Tg mice): greatly reduced | production of pro-inflammatory cytokine mRNAs (TNF-alpha, TL1A, IL-23p19, IL-6 and IL-1beta mRNAs) (BMDC from LRRK2 Tg mice [2]; [10]): suppressed

CCNc1nc(Nc2cc(F)c(C(=O)N3CCOCC3)cc2OC)ncc1C(F)(F)F [GNE-7915, (4-((4-(ethylamino)-5-(trifluoromethyl)pyrimidin-2-yl)amino)-2-fluoro-5-methoxyphenyl)(morpholino)methanone]
brain penetration [4]: brain-penetrant | selectivity (kinases) (187 kinases): 1/187

CNc1nc(Nc2ccc(C(=O)N3CCOCC3)cc2OC)ncc1Cl [HG-10-102-01, (4-(5-Chloro-4-(methylamino)pyrimidin-2-ylamino)-3-methoxyphenyl)(morpholino)methanone]
cell permeability [8]: cell-permeable | blood-brain-barrier crossing for LRRK2 phosphorylation inhibition (LRRK2 phosphorylation): can cross the blood-brain-barrier | activity toward a panel of 136 other kinases [9]: little activity
